Source: BindingDB's records for doi:10.1016/j.bmcl.2011.11.051 (The Ohio State University, 2012)

Each compound was assayed against Neuronal acetylcholine receptor subunit alpha-4/beta-2 (Homo sapiens, UniProt P43681+P17787) (assay: Antagonist activity at human nAChR alpha4/beta2 receptor expressed in HEK ts201 cells assessed as calcium accumulation by fluorescence analysis).
Neuronal acetylcholine receptor subunit alpha-4/beta-2, sequence (P43681 whole entry): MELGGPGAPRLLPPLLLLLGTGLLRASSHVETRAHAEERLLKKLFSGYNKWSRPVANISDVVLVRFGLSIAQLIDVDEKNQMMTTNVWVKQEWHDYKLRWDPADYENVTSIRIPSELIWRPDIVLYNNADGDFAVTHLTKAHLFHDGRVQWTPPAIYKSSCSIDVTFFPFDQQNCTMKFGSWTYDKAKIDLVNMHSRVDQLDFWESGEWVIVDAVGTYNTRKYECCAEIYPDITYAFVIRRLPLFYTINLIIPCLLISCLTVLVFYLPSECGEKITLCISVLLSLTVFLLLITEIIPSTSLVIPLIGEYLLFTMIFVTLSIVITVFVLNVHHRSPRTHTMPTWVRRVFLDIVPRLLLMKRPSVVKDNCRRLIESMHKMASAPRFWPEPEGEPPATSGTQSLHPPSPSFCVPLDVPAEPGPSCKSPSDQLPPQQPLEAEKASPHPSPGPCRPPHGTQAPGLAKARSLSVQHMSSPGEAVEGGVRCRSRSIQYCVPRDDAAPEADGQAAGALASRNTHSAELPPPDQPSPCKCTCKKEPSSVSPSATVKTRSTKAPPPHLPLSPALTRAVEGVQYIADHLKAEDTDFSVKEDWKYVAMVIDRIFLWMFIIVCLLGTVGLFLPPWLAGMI
Neuronal acetylcholine receptor subunit alpha-4/beta-2, sequence (P17787 whole entry): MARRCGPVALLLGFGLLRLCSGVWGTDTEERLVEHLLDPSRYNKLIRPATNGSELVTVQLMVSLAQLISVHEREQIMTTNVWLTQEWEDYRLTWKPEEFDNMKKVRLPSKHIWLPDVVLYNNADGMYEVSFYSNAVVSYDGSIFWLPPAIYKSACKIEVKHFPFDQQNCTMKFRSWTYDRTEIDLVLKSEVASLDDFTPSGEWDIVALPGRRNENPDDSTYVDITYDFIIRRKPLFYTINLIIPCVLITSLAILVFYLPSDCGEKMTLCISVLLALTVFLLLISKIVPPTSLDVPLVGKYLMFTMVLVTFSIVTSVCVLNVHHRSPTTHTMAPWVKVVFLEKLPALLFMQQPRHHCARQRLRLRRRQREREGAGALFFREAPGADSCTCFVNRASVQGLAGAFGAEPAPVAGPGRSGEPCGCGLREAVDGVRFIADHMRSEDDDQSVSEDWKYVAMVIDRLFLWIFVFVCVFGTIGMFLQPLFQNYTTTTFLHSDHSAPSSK

IC50	SMILES
4.47 µM	O=C(OCC1CCCN(CCc2ccccc2)C1)c1ccccc1-n1c(O)cc(Cc2ccccc2)c1O (stereo not given)
5.13 µM	O=C(OCC1CCCN(CCCc2ccccc2)C1)c1ccccc1-n1c(O)cc(CCc2ccccc2)c1O (stereo not given)
4.47 µM	CCN1CCCC(COC(=O)c2ccccc2-n2c(O)cc(Cc3ccccc3)c2O)C1 (stereo not given)

Further lines, the compound ahead of its results:

SMILES	IC50
O=C(OCC1=CCCN(CCCc2ccccc2)C1)c1ccccc1-n1c(O)cc(Cc2ccccc2)c1O	5.13 µM
Cc1cc(O)n(-c2ccccc2C(=O)OC[C@@H]2CCCN(CCCc3ccccc3)C2)c1O	8.91 µM
